Results reported in US20060134719A1, “Novel serine protease” (priority 2002, published 2006).
*: point of attachment. AMC = Cc1cc(=O)oc2cc(N*)ccc12; Boc = CC(C)(C)OC(=O)*; OBn = c1ccc(CO*)cc1

What follows are substances tested against T1, signal-FLAG-ARS-SerPD culture supernatant (SEQ ID NO:2 237th to 531st) (Homo sapiens, UniProt Q7Z410) (assay: Enzymatic cleavage of MCA-labeled synthetic peptides by signal-FLAG-ARS-SerPD culture supernatant). Settings: substrate 100 μM in TBS pH 7.5, 37° C.; never obtained with blank vector supernatant.
T1 construct: made in house; host or cells: HEK293-EBNA
T1 sequence (Q7Z410 with tags, fused parts or gaps): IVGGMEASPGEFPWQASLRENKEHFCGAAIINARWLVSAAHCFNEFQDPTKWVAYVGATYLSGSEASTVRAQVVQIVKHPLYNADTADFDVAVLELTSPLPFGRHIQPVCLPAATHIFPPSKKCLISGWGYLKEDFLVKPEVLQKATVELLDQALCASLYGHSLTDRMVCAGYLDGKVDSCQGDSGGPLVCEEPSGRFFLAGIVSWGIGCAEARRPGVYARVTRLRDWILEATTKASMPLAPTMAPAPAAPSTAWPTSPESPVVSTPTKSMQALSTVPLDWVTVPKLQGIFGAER
Format: biochemical
Experimental: The expression plasmids prepared in Examples 3 to 5 were introduced into HEK293-EBNA cell (Invitrogen) using a transfection reagent (FuGENE™6 transfection reagent; Roche) according to the instruction attached thereto. After the introduction of the plasmids, the culture medium was replaced with a serum-free culture medium within 12 to 16 hours and further incubated for another 48 to 60 hours. The culture supernatant was collected and resulting each liquid culture was centrifuged (3000 rpm, 10 minutes) with a centrifuge (Type 8800; Kubota) to obtain culture supernatants. After removing the culture supernatants, the remaining cells were washed with phosphate buffer (PBS; 10 mM sodium phosphate, pH 7.5) and then recovered by scraping from the culture plate by pipetting with phosphate buffer, and centrifuged with a centrifuge (Type 8800; Kubota) at 3000 rpm for 10 minutes. The resulting precipitate was suspended in phosphate buffer, which was defined as the cell fraction. The culture supernatants obtained by the introduction of pCEP-ARSF-FLAG, pCEP-signal-FLAG-ARS-extracellular and pCEP-signal-FLAG-ARS-SerPD are referred to as ARS-FLAG culture supernatant, signal-FLAG-ARS-extracellular culture supernatant, signal-FLAG-ARS-SerPD culture supernatant and signal-FLAG-ARS-SerPDO culture supernatant, respectively.
The method for detecting enzymatic cleavage activity using a synthetic peptide labeled with MCA (4-methyl-coumaryl-7-amide) in the C terminus was according to the method reported in an academic paper (Yasuoka, S. et al., Am. J. Respir. Cell Mol Biol., Vol. 16, 300-308, 1997), unless otherwise described. […] Subsequently, the fluorescence of AMC (7-amino-4-methyl-coumarin) released from the synthetic peptide by enzymatic cleavage was measured at a wavelength of 460 nm for measurement, using an excitation wavelength of 390 nm with a fluorescent plate reader (Fluostar, SLT).

Cleavage activity of synthetic peptide (fluorescence of released AMC), showed the cleavage activity:
Boc-Phe-Ser-Arg-{AMC}
Boc-Glu(OBn)-Ala-Arg-{AMC}
Boc-Gln-Arg-Arg-{AMC}
